Measured values from US20080200531A1, “CDKI pathway inhibitors as inhibitors of tumor cell growth” (priority 2006, published 2008).

Key:
[1] = tested on: CDKI-responsive endogenous genes induced by p21; assay: Q-PCR of CDKI-responsive endogenous genes, HT1080 cells with IPTG-inducible p21; assay type: cell-based, human; settings: 10 μM SNX9, 20 μM SNX9-1; normalized to β-actin
Experimental: For this purpose, we developed real-time RT-PCR (Q-PCR) assays for measuring RNA levels of eleven CDKI-responsive genes. This assay uses a 96-well TurboCapture RNA extraction kit (Qiagen), in which oligo(dT) is covalently bound to the surface of the wells to allow mRNA isolation from cell lysate and cDNA synthesis in the same wells. 5 units/μl of SuperScript III reverse transcriptase (Invitrogen) was added to the wells for 1 hr for cDNA synthesis at 50° C., and 2 μl of the resulting cDNA was then used for Q-PCR analysis using SYBR Green PCR Master Mix (ABI) with ABI 7900HT Q-PCR machine.
This effect argues that the molecular target of these compounds is not a specific CDKI but rather a common downstream mediator of the transcription-inducing effects of different CDKI.

[2] = target: T1, CDK3/cyclinE (h) (Homo sapiens, UniProt Q00526); assay: Cyclin/CDK kinase assay (Upstate), CDK3/cyclinE; assay type: biochemical; settings: 100 μM, re-tested at 20 and 40 μM (SNX9, SNX2) or 10 and 20 μM (SNX9-1, SNX14)
T1 construct: purchased Upstate Biotechnology, Inc
T1 sequence (Q00526 whole entry): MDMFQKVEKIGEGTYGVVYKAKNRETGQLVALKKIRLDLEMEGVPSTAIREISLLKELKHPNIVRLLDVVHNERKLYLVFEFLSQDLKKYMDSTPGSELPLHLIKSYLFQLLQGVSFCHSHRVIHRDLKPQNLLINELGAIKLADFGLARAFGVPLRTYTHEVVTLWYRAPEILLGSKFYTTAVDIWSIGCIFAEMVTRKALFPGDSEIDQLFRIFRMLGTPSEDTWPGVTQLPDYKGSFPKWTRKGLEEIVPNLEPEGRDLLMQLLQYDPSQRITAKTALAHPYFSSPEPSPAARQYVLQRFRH
T1 sequence (P24864 whole entry partner): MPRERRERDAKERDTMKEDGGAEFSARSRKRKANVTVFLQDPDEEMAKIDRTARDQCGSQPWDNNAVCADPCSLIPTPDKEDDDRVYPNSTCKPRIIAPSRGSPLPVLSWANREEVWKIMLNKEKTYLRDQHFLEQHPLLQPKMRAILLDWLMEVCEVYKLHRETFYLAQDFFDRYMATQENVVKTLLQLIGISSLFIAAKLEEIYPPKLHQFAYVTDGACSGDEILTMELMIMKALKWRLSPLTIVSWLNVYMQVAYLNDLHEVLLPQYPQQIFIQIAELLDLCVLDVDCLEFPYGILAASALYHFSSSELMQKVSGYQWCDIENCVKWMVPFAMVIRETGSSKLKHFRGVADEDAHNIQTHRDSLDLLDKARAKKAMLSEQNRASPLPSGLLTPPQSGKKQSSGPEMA
Experimental: To test the above hypothesis, we determined whether several CDKI pathway inhibitors, including two SNX9 class compounds (SNX9 and SNX9-1), two compounds of a different structural class (SNX14 and SNX2) and another unrelated inhibitor (SNX35), inhibit the kinase activity of different complexes formed in vitro by purified cyclin/CDK complexes. This analysis was carried out as a service by Upstate Biotechnology, Inc.
In a final reaction volume of 25 μl, CDK3/cyclinE (h) (5-10 mU) is incubated with 8 mM MOPS pH 7.0, 0.2 mM EDTA, 0.1 mg/ml H1, 10 mM MgAcetate and [γ-33P-ATP] (specific activity approx. 500 cpm/pmol, 200 μM concentration). The reaction is initiated by the addition of the MgATP mix. After incubation for 40 minutes at room temperature, the reaction is stopped by the addition of 5 μl of a 3% phosphoric acid solution. 10 μl of the reaction is then spotted onto a P30 filtermat and washed three times for 5 minutes in 75 mM phosphoric acid and once in methanol prior to drying and scintillation counting.
At the first step, all the compounds were tested at 100 μM concentration. […] For SNX14 and SNX2, the relative efficacy of inhibition was CDK1>CDK2˜CDK3>CDK6. For SNX9 and SNX9-1, the order was CDK3>CDK1>CDK2>CDK6 (FIG. 12).

[3] = tested on: human colon (HCT116) cancer xenografts; assay: Therapeutic Dose Study in nude mice bearing HCT116 xenografts; assay type: in vivo; settings: 70 mg/kg intra-tumorally; for decrease in the tumor size on day 31 relative to the control / mice that died or were sacrificed by day 31: 9 injections over three weeks; for mice that died or were sacrificed by day 31: groups of 10, control 60%; for P, decrease in the tumor size on day 31 relative to the control: 9 injections, paired two-tailed t-test, dead or sacrificed mice taken as 2000 mm^3
Experimental: Male NCr nude mice, aged approximately 6-8 weeks were used for the study, which was carried out as a service by Taconic Biotechnology, Rensselaer, N.Y. Animals were maintained under virus free barrier conditions with continuous health monitoring. The administration of test materials, all data collection and disposal of study animals was in compliance with all relevant Taconic Biotechnology Standard Operating Procedures as well as The Guide for the Care and Use of Laboratory Animals. Study animals were observed upon arrival and daily throughout the study for overall health, behavior and morbidity. Test animals were subject to body weight measurement to determine dosage volumes of test articles.
With this information, we then carried out the Therapeutic Dose Study of SNX9 and SNX9-1, in nude mice bearing established human colon (HCT116) cancer xenografts. HCT116 was from American Type Culture Collection (ATCC); ATCC information was referenced for the cryopreservation and growing of the cells. The cells were injected at 5×10^6 subcutaneously in the intra-scapular region. The tumor dimensions were measured using vernier calipers. To approximate the subcutaneous tumor size, the calipers were compressed on the skin slightly but not so tightly as to grip the subcutaneous mass. The maximal dimension of the tumor was recorded as L. The dimension perpendicular to L was recorded as W. The formula: Volume=0.5*L*W^2 was used. Eight days following tumor cell injection into the intra-scapular region, when all the tumor inoculi became palpable, groups of 10 mice were treated for 21 days with PBS (control), SNX9 or SNX9-1 (each at 70 mg/kg), dissolved as in the Range Finder Study.
The compounds were injected intra-tumorally three times a week, on alternating days, for a total of 9 injections per animal over three weeks. Mice were sacrificed when tumor size exceeded 2000 mm^3. […] By day 31 (2 days after the end of treatment), 6 of 10 mice in the control group (60%) died or were sacrificed, as compared to 40% of the mice in SNX9-treated group and only 10% of the mice in SNX9-1 treated group. Statistical analysis of differences in the tumor size on day 31 was carried out using paired two-tailed t-test; for this analysis, the tumor volume of all the mice that died or were sacrificed before day 31 was assumed to be 2000 mm^3.

[4] = tested on: p21-induced transcription from the NK4 promoter; assay: NK4 promoter-firefly luciferase reporter in HT1080 p21-9 cells; assay type: cell-based, human; settings: 20 μM SNX-9
Experimental: In this experiment, HT1080 p21-9 cells that express firefly luciferase from a CDKI-responsive promoter of cellular NK4 gene were cultured with IPTG for two days, which is sufficient for near-maximal induction of NK4 (Poole et al., supra).

[5] = tested on: NFκB p50 and p65 subunits; assay: TransAM NFκB p65 and p50 Chemi Transcription Factor Assay (oligonucleotide binding); assay type: cell-based; settings: TNFα-induced or basal
Excerpt: We also tested if these compounds could act as the inhibitors of NFκB, by measuring cellular levels of p50 or p65 subunits binding oligonucleotides containing NFκB consensus binding site, using ACTIVE MOTIF TransAM™ NFκB p65 Chemi and NFκB p50 Chemi Transcription Factor Assay Kits.

[6] = tested on: HT1080 p21-9 cells; assay: FACS analysis of DNA content and GF7 mitotic staining; assay type: cell-based, human
Excerpt: The combination of p21 and SNX9-class compounds leads to both G1 and G2/M arrest, at the levels expected for the combined effects of p21 and SNX9 (FIG. 6).

[7] = tested on: HCT116 colon carcinoma; assay: 3-day growth inhibition assay (Hoechst 33342), HCT116; assay type: cell-based; settings: Homo sapiens, HCT-116, 72 h, 3 days, read-out: growth inhibition (decrease in cell number relative to untreated cells)
Experimental: (§1) The assays were carried out in 96-well plates, in triplicates; the plated cell numbers for each cell line were determined in preliminary experiments to assure exponential growth over the 3-day period of the assay. The cell numbers were measured by staining DNA of attached cells with Hoechst 33342, and the results for each dose were expressed as the decrease in cell number relative to untreated cells. For some of the tumor/normal cell line combinations, the assays were repeated using CellTiter-Glo viability assay (Promega), with the same results.

[8] = tested on: HMEC primary cultures, MCF-7 and MDA231; assay: 3-day growth inhibition assay (Hoechst 33342), normal mammary epithelial cells vs breast carcinoma lines; settings: 3-day assay; HMEC vs MCF-7 and MDA231
Experimental: as §1

SMILES | induction of CDKI-responsive endogenous genes by p21 (ratio of RNA levels with and without IPTG) [1] | kinase activity of CDK3 [2] | decrease in the tumor size on day 31 relative to the control [3] | mice that died or were sacrificed by day 31 [3] [%] | P, decrease in the tumor size on day 31 relative to the control [3] | induction of NK4-luciferase by p21, compound added after two days of IPTG treatment (reversal) [4] | induction of NK4-luciferase by p21, compound added simultaneously with IPTG [4] | NFκB activity (p50 or p65 binding to NFκB consensus oligonucleotide) [5] | mitotic fraction (GF7 antibody staining) ([6]; SNX9-treated cells) | G2/M fraction (FACS analysis of DNA content) ([6]; SNX9 alone) | inhibition at 5 µM [7] [%] | tumor selectivity of growth inhibition, normal vs transformed mammary cells [8]
NCCc1c[nH]c2c(Cl)cc(Cl)cc12 [SNX9-1] | partially inhibit the induction of all the tested genes | inhibited the kinase activities | highly significant | 10 | < 0.01 | – | – | – | – | – | – | –
Cc1[nH]c2c(Cl)cccc2c1CCN [SNX9] | partially inhibit the induction of all the tested genes | inhibited the kinase activities | did not reach statistical significance | 40 | < 0.3 | reverses CDKI-induced transcription | decreased the induction of NK4-luciferase by p21 | no significant effect | increase in the mitotic fraction | pronounced increase in the G2/M fraction | ~100 | clear tumor selectivity
